Laboratory results as given in US20110105509A1 (Wyeth, LLC, priority 2009, published 2011).

Target: T1, CRTH2 (Homo sapiens, UniProt Q9Y5Y4)
T1 construct: expressed in transfected cells; host or cells: CHO cells
T1 sequence (Q9Y5Y4 1-395): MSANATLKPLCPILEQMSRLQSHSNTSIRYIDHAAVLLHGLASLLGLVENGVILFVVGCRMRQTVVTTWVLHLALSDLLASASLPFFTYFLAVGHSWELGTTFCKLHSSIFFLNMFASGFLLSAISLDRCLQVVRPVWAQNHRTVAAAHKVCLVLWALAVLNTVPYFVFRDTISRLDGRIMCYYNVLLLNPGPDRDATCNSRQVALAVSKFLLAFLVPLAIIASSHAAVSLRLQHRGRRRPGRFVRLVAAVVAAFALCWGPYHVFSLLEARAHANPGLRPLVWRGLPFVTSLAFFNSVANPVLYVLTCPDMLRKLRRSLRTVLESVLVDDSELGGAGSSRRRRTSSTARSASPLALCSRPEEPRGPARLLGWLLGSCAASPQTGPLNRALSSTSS
Experiment: FRET based competitive immunoassay (cAMP) in CRTH2 expressing CHO cells
Format: cell-based
Conditions: CRTH2 expressing CHO cells incubated with forskolin and PGD2; Eu3+ cryptate-labeled anti-cAMP and d2-labeled cAMP
Procedure: FRET Assay: To evaluate potency compounds were tested in a FRET based competitive immunoassay in which CRTH2 expressing CHO cells were incubated in the presence of forskolin and PGD2 along with Eu3+ cryptate-labeled anti-cAMP and d2-labeled cAMP.

SMILES	IC50
Cc1c(-c2ccc(=O)n(CCC(C(F)(F)F)C(F)(F)F)c2)c2cc(F)ccc2n1CC(=O)O [Example 316, 2-(5-fluoro-2-methyl-3-(6-oxo-1-(4,4,4-trifluoro-3-(trifluoromethyl)butyl)-1,6-dihydropyridin-3-yl)-1H-indol-1-yl)acetic acid]	39 nM
Cc1c(-c2ccc(=O)n(Cc3cccc(F)c3F)c2)c2cc(F)ccc2n1CC(=O)O [Example 269, 2-(3-(1-(2,3-difluorobenzyl)-6-oxo-1,6-dihydropyridin-3-yl)-5-fluoro-2-methyl-1H-indol-1-yl)acetic acid]	1 nM
Cc1c(-c2cn(C(C)C)c(=O)c3ccccc23)c2cc(F)ccc2n1CC(=O)O [Example 249, 2-(5-fluoro-3-(2-isopropyl-1-oxo-1,2-dihydroisoquinolin-4-yl)-2-methyl-1H-indol-1-yl)acetic acid]	5 nM
Cc1c(Cc2ccc(=O)n(Cc3ccccc3)n2)c2cc(F)ccc2n1CC(=O)O [Example 337, {3-[(1-benzyl-6-oxo-1,6-dihydropyridazin-3-yl)methyl]-5-fluoro-2-methyl-1H-indol-1-yl}acetic acid]	10 nM
Cc1c(-c2ccc(=O)n(Cc3cccc(F)c3F)n2)c2ccccc2n1CC(=O)O [Example 188, 2-(3-(1-(2,3-difluorobenzyl)-6-oxo-1,6-dihydropyridazin-3-yl)-2-methyl-1H-indol-1-yl)acetic acid]	227 nM
CCn1nc(-c2c(C)n(CC(=O)O)c3ccccc23)c2ccccc2c1=O [Example 175, 2-(3-(3-ethyl-4-oxo-3,4-dihydrophthalazin-1-yl)-2-methyl-1H-indol-1-yl)-acetic acid]	175 nM
Cc1c(-c2nn(CC(O)(C(F)(F)F)C(F)(F)F)c(=O)c3ccccc23)c2cc(F)ccc2n1CC(=O)O [Example 131, 2-(5-fluoro-2-methyl-3-(4-oxo-3-(3,3,3-trifluoro-2-hydroxy-2-(trifluoro-methyl)propyl)-3,4-dihydrophthalazin-1-yl)-1H-indol-1-yl)acetic acid]	54 nM
Cc1c(-c2ccc(=O)n(C)n2)c2cc(Cl)ccc2n1CC(=O)O [Example 149, 2-(5-chloro-2-methyl-3-(1-methyl-6-oxo-1,6-dihydropyridazin-3-yl)-1H-indol-1-yl)acetic acid]	2150 nM
Cc1c(-c2nn(CC(C)(C)O)c(=O)c3ccccc23)c2cc(F)ccc2n1CC(=O)O [Example 129, 2-(5-fluoro-3-(3-(2-hydroxy-2-methylpropyl)-4-oxo-3,4-dihydrophthalazin-1-yl)-2-methyl-1H-indol-1-yl)acetic acid]	136 nM
Cc1c(-c2nn(Cc3ccc4ccccc4n3)c(=O)c3ccccc23)c2ccccc2n1CC(=O)O [Example 169, 2-(2-methyl-3-(4-oxo-3-(quinolin-2-ylmethyl)-3,4-dihydrophthalazin-1-yl)-1H-indol-1-yl)acetic acid]	14 nM
Cc1c(-c2nn(Cc3ccncc3)c(=O)c3ccccc23)c2cc(F)ccc2n1CC(=O)O [Example 134, 2-(5-fluoro-2-methyl-3-(4-oxo-3-(pyridin-4-ylmethyl)-3,4-dihydrophthalazin-1-yl)-1H-indol-1-yl)acetic acid]	3 nM
Cc1c(-c2cn(CC(F)(F)F)c(=O)c3ccccc23)c2ccccc2n1CC(=O)O [Example 251, 2-(2-methyl-3-(1-oxo-2-(2,2,2-trifluoroethyl)-1,2-dihydroisoquinolin-4-yl)-1H-indol-1-yl)acetic acid]	205 nM
Cc1c(-c2ccc(=O)n(Cc3ccc(F)cc3C(F)(F)F)n2)c2cc(Cl)ccc2n1CC(=O)O [Example 142, 2-(5-chloro-3-(1-(4-fluoro-2-(trifluoromethyl)benzyl)-6-oxo-1,6-dihydro-pyridazin-3-yl)-2-methyl-1H-indol-1-yl)acetic acid]	19 nM
Cc1c(-c2ccc(=O)n(Cc3ccccc3)n2)c2cc(F)cc(Cl)c2n1CC(=O)O [Example 231, 2-(3-(1-benzyl-6-oxo-1,6-dihydropyridazin-3-yl)-7-chloro-5-fluoro-2-methyl-1H-indol-1-yl)acetic acid]	401 nM
Cc1ccc2c(c1)c(-c1ccc(=O)n(Cc3ccccc3)n1)c(C)n2CC(=O)O [Example 191, 2-(3-(1-benzyl-6-oxo-1,6-dihydropyridazin-3-yl)-2,5-dimethyl-1H-indol-1-yl)acetic acid]	64 nM
Cc1c(-c2ccc(=O)n(Cc3ccccc3)c2)c2ccccc2n1CC(=O)O [Example 263, 2-(3-(1-benzyl-6-oxo-1,6-dihydropyridin-3-yl)-2-methyl-1H-indol-1-yl)acetic acid]	42 nM
Cc1c(-c2ccc(=O)n(Cc3ccccc3F)c2)c2cc(F)ccc2n1CC(=O)O [Example 266, 2-(5-fluoro-3-(1-(2-fluorobenzyl)-6-oxo-1,6-dihydropyridin-3-yl)-2-methyl-1H-indol-1-yl)acetic acid]	9 nM
Cc1c(-c2nn(Cc3cccc(F)c3)c(=O)c3ccccc23)c2cc(F)ccc2n1CC(=O)O [Example 329, {5-fluoro-3-[3-(3-fluorobenzyl)-4-oxo-3,4-dihydrophthalazin-1-yl]-2-methyl-1H-indol-1-yl}acetic acid]	3 nM
Cc1c(-c2nn(Cc3ccccn3)c(=O)c3ccccc23)c2cc(F)ccc2n1CC(=O)O [Example 136, 2-(5-fluoro-2-methyl-3-(4-oxo-3-(pyridin-2-ylmethyl)-3,4-dihydrophthalazin-1-yl)-1H-indol-1-yl)acetic acid]	4 nM
Cc1c(-c2nn(Cc3cc(F)c(F)cc3F)c(=O)c3ccccc23)c2cc(F)ccc2n1CC(=O)O [Example 63, 2-(5-fluoro-2-methyl-3-(4-oxo-3-(2,4,5-trifluorobenzyl)-3,4-dihydro-phthalazin-1-yl)-1H-indol-1-yl)acetic acid]	15 nM
Cc1c(-c2nn(C3CCCC3)c(=O)c3ccccc23)c2ccccc2n1CC(=O)O [Example 179, 2-(3-(3-cyclopentyl-4-oxo-3,4-dihydrophthalazin-1-yl)-2-methyl-1H-indol-1-yl)-acetic acid]	> 1000 nM
CCn1nc(-c2c(C)n(CC(=O)O)c3ccc(Cl)cc23)ccc1=O [Example 150, 2-(5-chloro-3-(1-ethyl-6-oxo-1,6-dihydropyridazin-3-yl)-2-methyl-1H-indol-1-yl)acetic acid]	559 nM
Cc1c(-c2ccc(=O)n(CCC(F)(F)F)n2)c2cc(F)ccc2n1CC(=O)O [Example 164, 2-(5-fluoro-2-methyl-3-(6-oxo-1-(3,3,3-trifluoropropyl)-1,6-dihydro-pyridazin-3-yl)-1H-indol-1-yl)acetic acid]	409 nM
COc1ccc2c(c1)c(-c1ccc(=O)n(CC(F)(F)F)c1)c(C)n2CC(=O)O [Example 298, 2-(5-methoxy-2-methyl-3-(6-oxo-1-(2,2,2-trifluoroethyl)-1,6-dihydropyridin-3-yl)-1H-indol-1-yl)acetic acid]	> 2000 nM
Cc1c(-c2nn(CCc3ccc(F)cc3)c(=O)c3ccccc23)c2ccccc2n1CC(=O)O [Example 224, 2-(3-(3-(4-fluorophenethyl)-4-oxo-3,4-dihydrophthalazin-1-yl)-2-methyl-1H-indol-1-yl)acetic acid]	93 nM
Cc1c(-c2ccc(=O)n(C(C)C)c2)c2ccccc2n1CC(=O)O [Example 276, 2-(3-(1-isopropyl-6-oxo-1,6-dihydropyridin-3-yl)-2-methyl-1H-indol-1-yl)-acetic acid]	577 nM
